Experimental data published in patent US20030022821A1, “Bioactive peptides” (priority 1998, published 2003).
Values after ≈ are worked out from the molar mass of the structure shown. Read-outs that look alike come from different tables or passages of the source. Ends that are not written are not given here. Peptide text beside a SMILES is read from it. * marks the point of attachment. Acm = CC(=O)NC*

Experiments:
[1] = system: Escherichia coli ATCC 25922; format: cell-based
Procedure: (§1) The bacterial strains used were: Escherichia coli ATCC 25922 and Staphylococcus aureus ATCC 25923. All strains were stored at −70° C. The bacteria were grown in 2% Bacto Peptone water (Difco 1807-17-4). All tests were performed with bacteria in mid-logarithmic growth phase. Determination of the minimum inhibitory concentration (MIC) of the peptides for bacterial strains were performed in 1% Bacto Peptone water. A standard microdilution technique with an inoculum of 2×10^6 CFU/ml was used. All assays were performed in triplets. Since the peptides are positively charged and therefore could adhere to the plastic wells, we controlled the actual concentration of the peptides in the solution by HPLC. There was no difference between the concentration of the peptides before or after adding the solution to the plastic wells.

[2] = system: Staphylococcus aureus ATCC 25923; format: cell-based
Procedure: as §1

| Molecule | MIC E. coli ([1]; Table 4) | MIC S. aureus ([2]; Table 4, unit assumed) | MIC E. coli ([1]; ATCC 25922) | MIC S. aureus ([2]; ATCC 25923) | MIC E. coli ([1]; Table 14, peptides with a proportion of D amino acids) |
| --- | --- | --- | --- | --- | --- |
| CSCC[C@H](NC(=O)[C@H](CC(N)=O)NC(=O)[C@H](Cc1c[nH]c2ccccc12)NC(=O)[C@H](CCC(N)=O)NC(=O)[C@H](Cc1c[nH]c2ccccc12)NC(=O)[C@H](CCC(N)=O)NC(=O)[C@H](Cc1ccccc1)NC(=O)[C@H](CSCNC(C)=O)NC(=O)[C@H](CCCCN)NC(=O)[C@@H](N)[C@@H](C)O)C(=O)N[C@@H](CCCNC(=N)N)C(=O)N[C@@H](CCCCN)C(=O)N[C@H](C(=O)N[C@@H](CCCNC(=N)N)C(=O)NCC(=O)O)C(C)C [LFHW8, H2N-Thr-Lys-Cys-Phe-Gln-Trp-Gln-Trp-Asn-Met-Arg-Lys-Val-Arg-Gly-COOH] (H-TKC(Acm)FQWQWNMRKVRG-OH) | 110 µg/mL (≈ 53.9 µM) | > 1000 µg/mL |  |  |  |
| TKCFQWQRNMRKVRG [Native LFH] | > 1000 µg/mL | > 1000 µg/mL |  |  |  |
| CSCC[C@H](NC(=O)[C@H](CCCNC(=N)N)NC(=O)[C@H](Cc1c[nH]c2ccccc12)NC(=O)[C@H](CCC(N)=O)NC(=O)[C@H](Cc1c[nH]c2ccccc12)NC(=O)[C@H](CCC(N)=O)NC(=O)[C@H](Cc1ccc(O)cc1)NC(=O)[C@H](CSCNC(C)=O)NC(=O)[C@H](CCCCN)NC(=O)[C@@H](N)CO)C(=O)N[C@@H](CCCNC(=N)N)C(=O)N[C@@H](CCCCN)C(=O)N[C@@H](CC(C)C)C(=O)NCC(=O)N[C@@H](C)C(=O)O [LFGW8, H2N-Ser-Lys-Cys-Tyr-Gln-Trp-Gln-Trp-Arg-Met-Arg-Lys-Leu-Gly-Ala-COOH] (H-SKC(Acm)YQWQWRMRKLGA-OH) | 500 µg/mL (≈ 248 µM) | > 1000 µg/mL |  |  |  |
| CSCC[C@H](NC(=O)[C@H](CCCNC(=N)N)NC(=O)[C@H](CCCNC(=N)N)NC(=O)[C@H](CCC(N)=O)NC(=O)[C@H](Cc1c[nH]c2ccccc12)NC(=O)[C@H](CCC(N)=O)NC(=O)[C@H](Cc1ccc(O)cc1)NC(=O)[C@H](CSCNC(C)=O)NC(=O)[C@H](CCCCN)NC(=O)[C@@H](N)CO)C(=O)N[C@@H](CCCNC(=N)N)C(=O)N[C@@H](CCCCN)C(=O)N[C@@H](CC(C)C)C(=O)NCC(=O)N[C@@H](C)C(=O)O [Native LFG, SKCYQWQRRMRKLGA] (H-SKC(Acm)YQWQRRMRKLGA-OH; N-terminus assumed) | 750 µg/mL (≈ 378 µM) |  |  |  |  |
| CSCC[C@H](NC(=O)[C@H](CCC(=O)O)NC(=O)[C@H](Cc1c[nH]c2ccccc12)NC(=O)[C@H](CCC(N)=O)NC(=O)[C@H](Cc1c[nH]c2ccccc12)NC(=O)[C@H](CCCNC(=N)N)NC(=O)[C@H](CC(C)C)NC(=O)[C@H](CSCNC(C)=O)NC(=O)[C@H](CCCCN)NC(=O)[C@@H](N)CCCNC(=N)N)C(=O)N[C@@H](CCCNC(=N)N)C(=O)N[C@@H](CCCCN)C(=O)N[C@@H](Cc1ccc(O)cc1)C(=O)NCC(=O)NCC(=O)O [LFM R1 W8 Y13] (H-RKC(Acm)LRWQWEMRKYGG-OH; N-terminus and C-terminus assumed) |  |  | 50 µg/mL (≈ 24.2 µM) | 50 µg/mL (≈ 24.2 µM) |  |
| CSCC[C@H](NC(=O)[C@H](CCCNC(=N)N)NC(=O)[C@H](Cc1c[nH]c2ccccc12)NC(=O)[C@H](CCC(N)=O)NC(=O)[C@H](Cc1c[nH]c2ccccc12)NC(=O)[C@H](CCCNC(=N)N)NC(=O)[C@H](CCCNC(=N)N)NC(=O)[C@H](CSCNC(C)=O)NC(=O)[C@H](C)NC(=O)[C@@H](N)Cc1ccccc1)C(=O)N[C@@H](CCCCN)C(=O)N[C@@H](CCCCN)C(=O)N[C@@H](CC(C)C)C(=O)NCC(=O)N[C@@H](C)C(=O)O [LFB A2] (H-FAC(Acm)RRWQWRMKKLGA-OH) |  |  | 80 µg/mL (≈ 39.8 µM) | >200 µg/mL |  |
| CSCC[C@H](NC(=O)[C@H](CCCNC(=N)N)NC(=O)[C@H](Cc1c[nH]c2ccccc12)NC(=O)[C@H](CCC(N)=O)NC(=O)[C@H](Cc1c[nH]c2ccccc12)NC(=O)[C@H](CCCNC(=N)N)NC(=O)[C@H](CCCNC(=N)N)NC(=O)[C@H](CSCNC(C)=O)NC(=O)[C@H](CCCCN)NC(=O)[C@H](C)N)C(=O)N[C@@H](CCCCN)C(=O)N[C@@H](CCCCN)C(=O)N[C@@H](CC(C)C)C(=O)NCC(=O)N[C@@H](C)C(=O)O [LFB A1] (H-AKC(Acm)RRWQWRMKKLGA-OH) |  |  | 70 µg/mL (≈ 35.2 µM) | >200 µg/mL |  |
| CSCC[C@H](NC(=O)[C@H](CCCNC(=N)N)NC(=O)[C@H](Cc1c[nH]c2ccccc12)NC(=O)[C@H](CCC(N)=O)NC(=O)[C@H](Cc1c[nH]c2ccccc12)NC(=O)[C@H](CCCNC(=N)N)NC(=O)[C@H](C)NC(=O)[C@H](CSCNC(C)=O)NC(=O)[C@H](CCCCN)NC(=O)[C@@H](N)Cc1ccccc1)C(=O)N[C@@H](CCCCN)C(=O)N[C@@H](CCCCN)C(=O)N[C@@H](CC(C)C)C(=O)NCC(=O)N[C@@H](C)C(=O)O [LFB A4] (H-FKC(Acm)ARWQWRMKKLGA-OH) |  |  |  | >200 µg/mL |  |
| CSCC[C@H](NC(=O)[C@H](CCCNC(=N)N)NC(=O)[C@H](Cc1c[nH]c2ccccc12)NC(=O)[C@H](CCC(N)=O)NC(=O)[C@H](Cc1c[nH]c2ccccc12)NC(=O)[C@H](C)NC(=O)[C@H](CCCNC(=N)N)NC(=O)[C@H](CSCNC(C)=O)NC(=O)[C@H](CCCCN)NC(=O)[C@@H](N)Cc1ccccc1)C(=O)N[C@@H](CCCCN)C(=O)N[C@@H](CCCCN)C(=O)N[C@@H](CC(C)C)C(=O)NCC(=O)N[C@@H](C)C(=O)O [LFB A5] (H-FKC(Acm)RAWQWRMKKLGA-OH) |  |  | 120 µg/mL (≈ 60.6 µM) | >200 µg/mL |  |
| CSCC[C@H](NC(=O)[C@H](CCCNC(=N)N)NC(=O)[C@H](Cc1c[nH]c2ccccc12)NC(=O)[C@H](CCC(N)=O)NC(=O)[C@H](Cc1c[nH]c2ccccc12)NC(=O)[C@H](CCCNC(=N)N)NC(=O)[C@H](CC(C)C)NC(=O)[C@H](CSCNC(C)=O)NC(=O)[C@H](CCCCN)NC(=O)[C@@H](N)CCC(=O)O)C(=O)N[C@@H](CCCNC(=N)N)C(=O)N[C@@H](CCCCN)C(=O)N[C@@H](Cc1ccc(O)cc1)C(=O)NCC(=O)NCC(=O)O [LFM R9 W8 Y13] (H-EKC(Acm)LRWQWRMRKYGG-OH; N-terminus and C-terminus assumed) |  |  | 150 µg/mL (≈ 72.5 µM) | 1000 µg/mL (≈ 483 µM) |  |
| CC[C@H](C)[C@H](NC(=O)[C@H](CCCCN)NC(=O)[C@H](Cc1c[nH]c2ccccc12)NC(=O)[C@H](CCC(N)=O)NC(=O)[C@H](Cc1c[nH]c2ccccc12)NC(=O)[C@H](CCC(N)=O)NC(=O)[C@H](CCCNC(=N)N)NC(=O)[C@H](CSCNC(C)=O)NC(=O)[C@H](CCCCN)NC(=O)[C@@H](N)CO)C(=O)N[C@@H](CCCNC(=N)N)C(=O)N[C@@H](CCCNC(=N)N)C(=O)N[C@H](C(=O)N[C@@H](CC(N)=O)C(=O)N1CCC[C@H]1C(=O)O)[C@@H](C)O [LFPW8] (H-SKC(Acm)RQWQWKIRRTNP-OH; N-terminus assumed) | 500 µg/mL (≈ 243 µM) | > 1000 µg/mL |  |  |  |
| CSCC[C@H](NC(=O)[C@H](CCC(=O)O)NC(=O)[C@H](Cc1c[nH]c2ccccc12)NC(=O)[C@H](CCC(N)=O)NC(=O)[C@H](Cc1c[nH]c2ccccc12)NC(=O)[C@H](CCCNC(=N)N)NC(=O)[C@H](CC(C)C)NC(=O)[C@H](CSCNC(C)=O)NC(=O)[C@H](CCCCN)NC(=O)[C@H](C)N)C(=O)N[C@@H](CCCNC(=N)N)C(=O)N[C@@H](CCCCN)C(=O)N[C@@H](Cc1ccc(O)cc1)C(=O)NCC(=O)NCC(=O)O [LFM A1 W8 Y13] (H-AKC(Acm)LRWQWEMRKYGG-OH; N-terminus and C-terminus assumed) |  |  | 500 µg/mL (≈ 252 µM) | >1000 µg/mL |  |
| CSCC[C@H](NC(=O)[C@H](C)NC(=O)[C@H](Cc1c[nH]c2ccccc12)NC(=O)[C@H](CCC(N)=O)NC(=O)[C@H](Cc1c[nH]c2ccccc12)NC(=O)[C@H](CCCNC(=N)N)NC(=O)[C@H](CC(C)C)NC(=O)[C@H](CSCNC(C)=O)NC(=O)[C@H](CCCCN)NC(=O)[C@H](C)N)C(=O)N[C@@H](CCCNC(=N)N)C(=O)N[C@@H](CCCCN)C(=O)N[C@@H](Cc1ccc(O)cc1)C(=O)NCC(=O)NCC(=O)O [LFM A1, 9 W8 Y13] (H-AKC(Acm)LRWQWAMRKYGG-OH; N-terminus and C-terminus assumed) |  |  | 150 µg/mL (≈ 77.9 µM) | >1000 µg/mL |  |
| CSCC[C@H](NC(=O)[C@H](CCCNC(=N)N)NC(=O)[C@H](Cc1c[nH]c2ccccc12)NC(=O)[C@H](CCC(N)=O)NC(=O)[C@H](Cc1c[nH]c2ccccc12)NC(=O)[C@H](CCCNC(=N)N)NC(=O)[C@H](CCCNC(=N)N)NC(=O)[C@H](CSCNC(C)=O)NC(=O)[C@H](CCCCN)NC(=O)[C@@H](N)Cc1ccccc1)C(=O)N[C@@H](C)C(=O)N[C@@H](CCCCN)C(=O)N[C@@H](CC(C)C)C(=O)NCC(=O)N[C@@H](C)C(=O)O [LFB A11] (H-FKC(Acm)RRWQWRMAKLGA-OH) |  |  | 70 µg/mL (≈ 34.9 µM) | >200 µg/mL |  |
| SKCRQWQSKIRRTNP [Native LFP, porcine region corresponding to LFB 17-31] | > 1000 µg/mL | > 1000 µg/mL |  |  |  |
| CC(=O)NCSC[C@H](NC(=O)[C@H](CCCCN)NC(=O)[C@@H](N)Cc1ccccc1)C(=O)N[C@@H](CCCNC(=N)N)C(=O)N[C@@H](CCCNC(=N)N)C(=O)N[C@@H](Cc1c[nH]c2ccccc12)C(=O)N[C@@H](CCC(N)=O)C(=O)N[C@@H](Cc1c[nH]c2ccccc12)C(=O)N[C@@H](CCCNC(=N)N)C(=O)N[C@@H](C)C(=O)N[C@@H](CCCCN)C(=O)N[C@@H](CCCCN)C(=O)N[C@@H](CC(C)C)C(=O)NCC(=O)N[C@@H](C)C(=O)O [LFB A10] (H-FKC(Acm)RRWQWRAKKLGA-OH) |  |  | 140 µg/mL (≈ 69.8 µM) | >200 µg/mL |  |
| RWWRYWR-NH2 [LFM 18-24 R1, 7 W2,3, 6Y5NH2, ARG-TRP-TRP-ARG-TYR-TRP-ARG-CONH2] |  |  | 10 µg/mL |  | 10 µg/mL |
